This test has as its system Mycosphaerella graminicola. Briefly: Cell test on Mycosphaerella graminicola. It counts as cell-based. Particulars: under similar conditions (6 ppm, liquid medium, OD 620 nm); comparison compounds of the prior art. The method, then: The growth of Mycosphaerella graminicola is performed in a bactopeptone based liquid medium at 20° C. under shaking (120 rpm) during 72 hours. The bactopeptone based medium is prepared by mixing 14.6 grams of D-glucose, 1.4 grams of Yeast extract and 7.1 g of bacteriological peptone (OXOID ref. LP0037) in 1 liter of demineralized water. The medium is sterilized by autoclave 15 minutes at 121° C. After 72 hours, pre-culture of Mycosphaerella graminicola is recovered and the optic density (OD) at 620 nm is adjusted with the bactopeptone based medium at 0.5. The compounds are dissolved in DMSO and added to sterile liquid bactopeptone medium at a concentration of 6 ppm. The medium is inoculated with the pre-culture of Mycosphaerella graminicola by a dilution of 10 times of the pre-culture. The efficacy of the compounds is assessed by OD measurement at 620 nm after 4 days at 20° C. in comparison with a control.

SMILES strings stand for the structures.

Among the data in patent US8283349B2, “Fungicide N-(3-phenylpropyl) carboxamide derivatives” (Bayer Cropscience AG, priority 2007, dated 2012) are activity values, retold here.

For the compound `COc1ccnc(C(=O)NCCC(c2ccccc2)c2ccccc2)c1O` [compound 16, N-(3,3-diphenylpropyl)-3-hydroxy-4-methoxypyridine-2-carboxamide], the activity result was “did not show any activity”.
`COc1ccc(CCCNC(=O)c2c(-c3ccc(Cl)cc3)noc2C)cc1OC` [compound 60, 3-(4-chlorophenyl)-N-[3-(3,4-dimethoxyphenyl)propyl]-5-methylisoxazole-4-carboxamide]: the activity entry is on record as “did not show any activity”.
